Tests used:
hM3 = hM3 (Homo sapiens, UniProt P20309); test: calcium mobilization assay, hM3 CHO cells, ACh EC80; assay type: cell-based
hM1 = target: T1, hM1 (Homo sapiens, UniProt P11229); test: calcium mobilization assay, hM1 CHO cells, ACh EC80; assay type: cell-based
T1 sequence (P11229 1-460): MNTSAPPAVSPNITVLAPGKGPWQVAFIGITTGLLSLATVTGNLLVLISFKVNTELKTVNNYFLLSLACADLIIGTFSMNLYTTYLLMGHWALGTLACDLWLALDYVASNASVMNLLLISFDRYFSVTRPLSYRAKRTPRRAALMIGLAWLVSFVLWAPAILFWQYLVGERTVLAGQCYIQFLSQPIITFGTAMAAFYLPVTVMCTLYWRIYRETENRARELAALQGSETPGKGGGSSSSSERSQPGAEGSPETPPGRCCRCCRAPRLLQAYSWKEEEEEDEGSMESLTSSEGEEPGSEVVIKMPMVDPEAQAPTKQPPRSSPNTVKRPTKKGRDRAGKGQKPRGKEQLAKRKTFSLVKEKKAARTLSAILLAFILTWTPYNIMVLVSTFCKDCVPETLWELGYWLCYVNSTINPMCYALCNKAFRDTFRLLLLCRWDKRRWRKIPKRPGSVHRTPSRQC

[1] = predicted hepatic clearance from microsomal intrinsic clearance, human; assay type: in vitro ADME; settings: based on microsomal CLint
hM2 = target: T2, hM2 (Homo sapiens, UniProt P08172); test: calcium mobilization assay, hM2/Gqi5 CHO cells, ACh EC80; assay type: cell-based
T2 sequence (P08172 1-466): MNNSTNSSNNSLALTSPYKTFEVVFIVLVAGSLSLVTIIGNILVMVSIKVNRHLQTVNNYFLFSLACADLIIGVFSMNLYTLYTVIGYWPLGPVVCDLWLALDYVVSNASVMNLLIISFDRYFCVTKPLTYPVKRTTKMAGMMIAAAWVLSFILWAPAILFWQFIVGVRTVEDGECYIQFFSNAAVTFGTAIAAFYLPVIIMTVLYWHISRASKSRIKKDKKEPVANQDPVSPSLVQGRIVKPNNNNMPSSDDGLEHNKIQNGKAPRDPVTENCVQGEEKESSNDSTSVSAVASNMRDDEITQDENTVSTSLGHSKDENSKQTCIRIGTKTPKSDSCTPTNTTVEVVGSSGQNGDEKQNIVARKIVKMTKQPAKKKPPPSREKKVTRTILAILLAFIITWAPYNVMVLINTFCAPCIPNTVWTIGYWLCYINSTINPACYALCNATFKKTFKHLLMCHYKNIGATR

[2] = predicted hepatic clearance from microsomal intrinsic clearance, rat; assay type: in vitro ADME; settings: based on microsomal CLint
rM4 = target: T3, rM4 (Rattus norvegicus, UniProt P08485); test: activity at rat mAChRs, rM4; assay type: cell-based
T3 sequence (P08485 1-478): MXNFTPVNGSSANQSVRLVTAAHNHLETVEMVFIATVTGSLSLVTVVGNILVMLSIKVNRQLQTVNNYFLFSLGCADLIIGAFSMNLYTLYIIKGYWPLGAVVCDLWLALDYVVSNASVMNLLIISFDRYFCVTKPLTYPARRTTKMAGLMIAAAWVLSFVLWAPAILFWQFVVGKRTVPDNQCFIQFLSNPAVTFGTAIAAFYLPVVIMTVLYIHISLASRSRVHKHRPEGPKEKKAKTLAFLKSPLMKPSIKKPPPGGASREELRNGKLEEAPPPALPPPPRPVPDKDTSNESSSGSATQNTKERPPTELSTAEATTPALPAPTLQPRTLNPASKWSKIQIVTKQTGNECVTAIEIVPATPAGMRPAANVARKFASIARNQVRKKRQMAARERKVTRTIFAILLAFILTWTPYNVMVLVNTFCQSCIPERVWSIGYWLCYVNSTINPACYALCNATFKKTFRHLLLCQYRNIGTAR

hM5 = target: T4, hM5 (Homo sapiens, UniProt P08912); test: calcium mobilization assay, hM5 CHO cells, ACh EC80; assay type: cell-based
T4 sequence (P08912 1-532): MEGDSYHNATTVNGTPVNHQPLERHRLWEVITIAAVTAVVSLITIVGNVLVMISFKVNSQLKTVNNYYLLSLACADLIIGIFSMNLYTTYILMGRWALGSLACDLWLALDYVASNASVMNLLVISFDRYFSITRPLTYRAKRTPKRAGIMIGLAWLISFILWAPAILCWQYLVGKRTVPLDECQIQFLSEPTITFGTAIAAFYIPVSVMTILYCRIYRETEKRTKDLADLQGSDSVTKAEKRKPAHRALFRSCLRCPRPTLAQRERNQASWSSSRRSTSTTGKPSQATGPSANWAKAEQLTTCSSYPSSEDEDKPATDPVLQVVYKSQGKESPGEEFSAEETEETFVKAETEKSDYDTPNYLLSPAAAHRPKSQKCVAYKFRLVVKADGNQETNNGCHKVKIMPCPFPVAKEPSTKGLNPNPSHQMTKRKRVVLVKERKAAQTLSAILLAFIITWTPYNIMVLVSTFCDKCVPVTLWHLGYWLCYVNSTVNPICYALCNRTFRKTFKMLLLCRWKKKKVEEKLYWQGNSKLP

hM4 = target: T5, hM4 (Homo sapiens, UniProt P08173); test: calcium mobilization assay, hM4/Gqi5 CHO cells, ACh EC80; assay type: cell-based; settings: for hM4 % ACh Min ±SEM: presence of ACh EC80
T5 sequence (P08173 1-479): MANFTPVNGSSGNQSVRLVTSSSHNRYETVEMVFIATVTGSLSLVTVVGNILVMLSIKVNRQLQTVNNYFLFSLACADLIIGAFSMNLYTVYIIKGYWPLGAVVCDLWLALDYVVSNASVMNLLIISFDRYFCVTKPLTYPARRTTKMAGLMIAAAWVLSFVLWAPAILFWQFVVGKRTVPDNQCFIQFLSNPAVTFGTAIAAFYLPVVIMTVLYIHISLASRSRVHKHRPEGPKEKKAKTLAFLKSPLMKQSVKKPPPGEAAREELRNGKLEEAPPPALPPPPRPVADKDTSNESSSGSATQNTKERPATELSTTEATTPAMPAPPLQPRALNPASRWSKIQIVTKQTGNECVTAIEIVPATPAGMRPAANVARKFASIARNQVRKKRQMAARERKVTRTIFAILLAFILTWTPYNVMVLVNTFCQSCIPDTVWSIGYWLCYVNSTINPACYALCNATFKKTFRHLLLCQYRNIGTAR

plasma protein binding = assay type: in vitro ADME
[3] = metabolite identification in human hepatic microsomes; assay type: in vitro ADME
[4] = metabolite identification in rat hepatic microsomes; assay type: in vitro ADME

Chain of hM3 (P20309 whole entry): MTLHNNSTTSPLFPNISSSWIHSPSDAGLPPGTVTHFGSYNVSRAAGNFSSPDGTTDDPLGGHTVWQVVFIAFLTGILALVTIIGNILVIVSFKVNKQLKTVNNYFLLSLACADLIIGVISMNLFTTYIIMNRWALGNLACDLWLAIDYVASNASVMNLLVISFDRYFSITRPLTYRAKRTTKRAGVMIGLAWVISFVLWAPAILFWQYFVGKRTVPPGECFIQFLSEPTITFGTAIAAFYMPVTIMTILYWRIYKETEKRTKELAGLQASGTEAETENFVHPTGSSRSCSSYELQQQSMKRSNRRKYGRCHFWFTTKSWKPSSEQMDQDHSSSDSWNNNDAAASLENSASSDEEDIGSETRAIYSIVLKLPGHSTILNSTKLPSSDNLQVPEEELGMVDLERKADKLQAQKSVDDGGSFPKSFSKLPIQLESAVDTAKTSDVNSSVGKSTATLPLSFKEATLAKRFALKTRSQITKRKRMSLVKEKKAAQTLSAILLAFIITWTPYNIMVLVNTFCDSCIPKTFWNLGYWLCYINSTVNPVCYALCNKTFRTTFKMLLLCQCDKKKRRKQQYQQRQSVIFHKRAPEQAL

Cc1noc(C)c1S(=O)(=O)N1CCN(c2ccc(N3CCCC(C)(C)C3)nn2)CC1 [Compound 14n, 4-[4-[6-(3,3-dimethyl-1-piperidyl)pyridazin-3-yl]piperazin-1-yl]sulfonyl-3,5-dimethyl-isoxazole]
mode of antagonism at human M3 (hM3): weak, partial antagonism | mode of antagonism at human M1 (hM1): potent full antagonist | predicted hepatic clearance (CLhep), human [1]: 20 mL/min/kg | mode of antagonism at human M2 (hM2): potent full antagonist | predicted hepatic clearance (CLhep), rat [2]: 66.6 mL/min/kg | rM4 % ACh Min (rM4): 32±1 % ACh Min | IC50 (rM4; rM4 pIC50): 372 nM | mode of antagonism at human M5 (hM5): weak, partial antagonism

C[C@H]1COCCN1c1ccc(N2CCN(S(=O)(=O)c3ccccc3Cl)CC2)nn1 [Compound 14a]
hM4 % ACh Min ±SEM (hM4): 56 % ACh Min

C[C@H]1CCCCN1c1ccc(N2CCN(S(=O)(=O)c3ccccc3Cl)CC2)nn1 [Compound 6a]
plasma protein binding (plasma protein binding): high plasma protein binding | number of NADPH-dependent metabolites formed, human microsomes [3]: 8 | parent remaining, human microsomes [3]: parent remained the major species | NADPH-independent metabolism, human microsomes ([3]; presence and absence of NADPH): no NADPH-independent metabolism | predicted hepatic clearance (CLhep), human [1]: > 20 mL/min/kg | M4-preferring functional selectivity over other mAChRs (hM4; hM4 versus hM1, hM2, hM3, hM5): 2.7- to 16 fold | predicted hepatic clearance (CLhep), rat [2]: > 60 mL/min/kg | parent remaining, rat microsomes [4]: very little parent remained | major peak (UV and extracted ion chromatograms), rat microsomes ([4]; oxidative metabolism of the piperidine moiety): metabolite F | NADPH-independent metabolism, rat microsomes ([4]; presence and absence of NADPH): no NADPH-independent metabolism

C[C@H]1CCCCN1c1ccc(N2CCN(S(=O)(=O)c3ccccc3C(F)(F)F)CC2)nn1 [Compound 9e]
hM4 activity (hM4): essentially equipotent to 6a

Cc1noc(C)c1S(=O)(=O)N1CCN(c2ccc(N3CCOC[C@@H]3C)nn2)CC1 [Compound 14c]
hM4 % ACh Min ±SEM (hM4): 66 % ACh Min

COc1ccccc1S(=O)(=O)N1CCN(c2ccc(N3CCCC[C@@H]3C)nn2)CC1 [Compound 9d]
hM4 activity (hM4): weak

C[C@H]1CCCCN1c1ccc(N2CCN(S(=O)(=O)c3ccccc3)CC2)nn1 [Compound 9c]
hM4 activity (hM4): weak

C[C@H]1CCCCN1c1ccc(N2CCN(S(=O)(=O)c3ccc4c(c3)OCO4)CC2)nn1 [Compound 9i]
fold more potent at hM4 than 3,4-dimethoxy analog 9j (hM4; 9i versus 9j): 10 fold

O=C1CCCCN1c1ccc(N2CCN(S(=O)(=O)c3ccccc3Cl)CC2)nn1 [Compound 14o]
hM4 % ACh Min ±SEM (hM4): 51 % ACh Min

O=S(=O)(c1ccccc1Cl)N1CCN(c2ccc(N3CCCCC3)nn2)CC1 [Compound 14g]
fold loss in hM4 inhibitory activity relative to 6a (hM4): 5- to 6 fold

C[C@H]1COCCN1c1ccc(N2CCN(S(=O)(=O)c3ccc4c(c3)OCO4)CC2)nn1 [Compound 14b]
hM4 % ACh Min ±SEM (hM4): 63 % ACh Min
